Patent US20230255988A1 (CORNELL UNIVERSITY, priority 2020, published 2023)
“Also recorded” adds a separate entry of the source.

Experiments:
[1] = system: amyloid positive patients with amnestic mild cognitive impairment (aMCI) or mild dementia due to AD; assay: Safety profile / adverse events in 12-month trial; assay type: in vivo, human
Source text: The trial duration per participant was twelve months.
Pre-screening of 634 patients at the METS at the Burke Rehabilitation Hospital excluded all but 120 participants (FIG. 1). Only eighty-three of these patients were amyloid positive. Twelve declined to participate. Seventy-one of these participants agreed to be part of the trial, and were randomized to receive either placebo or benfotiamine. Eight subjects were prematurely discontinued from the trial prior to Month 12. Three participants were withdrawn due to non-compliance <80%; three withdrew consent due to unwillingness to complete study procedures; one participant was lost to follow-up and one was withdrawn by PI due to physical limitations. None of the participants randomized to the treatment group withdrew due to adverse reactions or adverse effects. […] After the trial completion and after the data were locked, one patient in the placebo group was determined to be on benfotiamine from another source and was excluded from the per-protocol analysis.

[2] = system: brain glucose utilization; assay: FDG PET spatial covariance pattern score (SSM/PCA, CDR-derived); assay type: in vivo, human
Description: A multivariate machine learning approach was also applied to evaluate the FDG PET data (FIG. 10). Pattern-based methods have been increasingly applied to the evaluation of neurodegeneration and therapeutic response as they address the issue of complexity in comparing multiple regions and can increase signal to noise for analysis. Feature reduction was performed through use of the Scaled Subprofile Model (SSM), a form of Principal Components Analysis (PCA). The resulting components were used in regression modeling that determined spatial patterns of hypometabolism and hypermetabolism (or preservation relative to other regions) associated with the Clinical Dementia Rating (CDR) score.
Specifically, SSM by performing PCA on the PET-data array was run, with a subsequent brain-behavioral regression to derive a best-fitting pattern whose pattern scores correlates with the CDR score in a negative direction (i.e., the higher the pattern score, the lower the CDR).
To help with the imputation of the multivariate analysis, a generic multivariate decomposition was written as: Y(s,x)=w(s) v(x)+ε(s,x), where Y denotes the (log-transformed) data which depends on a participant and time index s and the voxel location x. […] The pattern score w(s) was chosen to correlate negatively with CDR across the data. The pattern v(x) is normalized to have unity Euclidean norm, i.e. ||v||=1. This means that the pattern score carries all information about the strength of the signal associated with the spatial pattern. Higher values of w(s) imply higher values of pattern-associated FDGPET signal in direct proportion in all regions.
To estimate the topographic robustness of any patterns of interest, a bootstrap resampling procedure was performed 10,000 times, for which data were resampled with replacement and the complete analytic recipe was executed on the resampled data, generating distribution for pattern loadings. […] For the correct interpretation, it is worth noting that positive and negative loadings describe only relative, and not absolute differences, in the signal associated with any covariance pattern. Since the residual signal in ε(s,x) was stripped off, there cannot be assurance that there are absolute differences in the total data for the regions with robust loadings.
After deriving and estimating the topographic robustness of the pattern, the pattern score was inspected for an effect of treatment at baseline and follow-up, also broken down by APOE ε4 status.

[3] = system: amyloid positive patients with amnestic mild cognitive impairment (aMCI) or mild dementia due to AD; assay: Clinical dementia rating (CDR) score, 12-month trial; assay type: in vivo, human
Source text: ADAS-cog served as the primary endpoint. […] The trial duration per participant was twelve months. […] Clinical dementia rating (CDR) score. CDR is a five-point scale used to characterize six domains of cognitive and functional performance applicable to Alzheimer's disease and related dementias: Memory, Orientation, Judgment & Problem Solving, Community Affairs, Home & Hobbies, and Personal Care. A higher score indicates greater dementia (C. P. Hughes et al., British Journal of Psychiatry, 140, 566-572, 1982). The primary clinical outcome was ADAS-Cog, and secondary outcomes included the CDR score and fluorodeoxyglucose ([…]) imaging of the brain. AGE levels were an exploratory outcome. The primary analysis followed Intention-to-Treat (ITT) and the secondary analysis was per-protocol. The per-protocol analysis omitted one placebo participant who took benfotiamine from a commercial vendor. The ITT and per-protocol analysis are presented for the primary outcome ADAS-cog and the secondary measure CDR. For the other measures, only per-protocol analysis are presented.

[4] = in vivo
Description: Measures of thiamine and its esters thiamine diphosphate (ThDP) and thiamine monophosphate (ThMP) provided blood markers of efficacy of drug delivery.
Study procedures. […] At the baseline visit, the cognitive tests were performed and blood drawn for measurement of thiamine, ThDP and ThMP by HPLC and APOE genotyping. Enrolled patients returned to the Burke outpatient clinic at month 3, 6, 9 and 12 for subsequent visits. At month 12, the final FDG/PET scan was performed at CUIMC.
The trial duration per participant was twelve months. […] At each visit, the patients returned the pill bottles for that period. The number of pills returned was used to assess compliance (the percent of pills consumed).

[5] = system: amyloid positive patients with amnestic mild cognitive impairment (aMCI) or mild dementia due to AD; assay: Neuropsychiatric Inventory (NPI), 12-month trial; assay type: in vivo, human
Description: The trial duration per participant was twelve months. […] Neuropsychiatric Inventory (NPI). The NPI assesses a wide range of behaviors encountered in dementia patients to provide a means of distinguishing frequency and severity of behavioral changes. Ten behavioral and two neuro-vegetative domains are evaluated through an interview with the caregiver.

[6] = system: advanced glycation end products (AGE); assay: Advanced glycation end products (AGE) level, ABCAM kit; assay type: in vivo, human; conditions: 12 months
Description: Biomarker outcomes. AGE are formed during the Maillard reaction where reducing carbohydrates react with lysine side chains and N-terminal amino groups of various macromolecules, particularly proteins. AGE can adversely affect the function of these macromolecules. One of the most prevalent advanced glycation end products, N-epsilon-(carboxymethyl) lysine, has been implicated in oxidative stress and vascular damage. The quantity of AGE adduct in protein samples is determined by comparison with that of a known AGE-BSA standard curve. AGE levels were measured on plasma sample with a kit from ABCAM (AB238539), Cambridge, Mass., USA

C/C(=C(\CCOP(=O)(O)O)SC(=O)c1ccccc1)N(C=O)Cc1cnc(C)nc1N [benfotiamine]
adverse events related to benfotiamine ([1]; 2×300 mg benfotiamine per day, twelve months): No adverse events | safety of administration in patients with aMCI and dementia due to AD ([1]; overall conclusion): safe | withdrawal due to adverse reactions or adverse effects ([1]; participants randomized to the treatment group): None | Allergy, number of patients (%) ([1]; treatment n = 34, 12 months): 0 (0%) | Anxiety, number of patients (%) ([1]; treatment n = 34, 12 months): 5 (14%) | Bruise, number of patients (%) ([1]; treatment n = 34, 12 months): 2 (6%) | Cold symptoms, number of patients (%) ([1]; treatment n = 34, 12 months): 3 (8%) | Depression, number of patients (%) ([1]; treatment n = 34, 12 months): 1 (3%) | Dizziness, number of patients (%) ([1]; treatment n = 34, 12 months): 3 (8%) | Fall, number of patients (%) ([1]; treatment n = 34, 12 months): 6 (17%) | Gastrointestinal problem, number of patients (%) ([1]; treatment n = 34, 12 months): 9 (26%) | Head injury, number of patients (%) ([1]; treatment n = 34, 12 months): 0 (0%) | Heart arrhythmia, number of patients (%) ([1]; treatment n = 34, 12 months): 1 (3%) | Pain, number of patients (%) ([1]; treatment n = 34, 12 months): 5 (14%) | Pneumonia, number of patients (%) ([1]; treatment n = 34, 12 months): 0 (0%) | Sprain, number of patients (%) ([1]; treatment n = 34, 12 months): 0 (0%) | Stroke, number of patients (%) ([1]; treatment n = 34, 12 months): 2 (6%) | Surgery, number of patients (%) ([1]; treatment n = 34, 12 months): 1 (3%) | Total adverse events ([1]; treatment n = 34, 12 months, placebo 59): 38 | CDR-derived FDG PET pattern, treatment effect in APOE ε4 negative population ([2]; 12 months, p=0.019): treatment effect at 12 months; also recorded: show a treatment effect | CDR-derived FDG PET pattern, treatment effect in APOE ε4 positive population ([2]; 12 months, p=0.255): not in APOE ε4 positive population; also recorded: do not | longitudinal change in pattern score (follow-up minus baseline), treated versus untreated ([2]; 59 participants who completed follow-up, p=0.638): No difference in longitudinal change | FDG PET pattern score at time point of 12 months, treatment versus untreated ([2]; FIG. 10A): slightly but significantly higher | FDG PET pattern score, change from baseline to 12 months versus untreated ([2]; all participants, APOE status not considered): significantly higher change from baseline to 12 months in treated than untreated participants | Mean change in global CDR from baseline to 12 months ([3]; 2×300 mg per day, placebo 0.22, p=0.034): 0.05 | reduction of deterioration (global CDR change versus placebo) ([3]; baseline to 12 months): 77% | CDR response by APOE ε4 status ([3]; non-APOE ε4 group p=0.013): non-APOE ε4 group seemed to respond much more; also recorded: only the non-APOE ε4 allele group differs | mean change in CDR-SB from baseline to 12 months, versus placebo ([3]; p=0.078): difference at trend level | increase in blood thiamine above baseline ([4]; human, 12 months): 161 fold | difference in thiamine levels by APOE-epsilon4 carrier status following treatment [4]: three-fold | change in NPI, whole population ([5]; 12 months versus placebo): No differences | NPI score in males ([5]; males, month 9 (0.014) and month 12 (p=0.035)): significantly reduced scores; also recorded: highly significant benefit in males | AGE effect by APOE ε4 status [6]: more apparent in non-APOE ε4 patients | effect on AGE over the course of the disease ([6]; 13 benfotiamine patients, p=0.043): inhibited the increase in AGE
